The source of these data is US10479780B2, “Aminopyrazole derivatives” (Chugai Seiyaku Kabushiki Kaisha, priority 2015, dated 2019).

Holding throughout (format): biochemical
One test addresses T1, human Yes1 enzyme (Homo sapiens, UniProt P07947).
T1 construct: made in house
Description: Yes1 enzyme inhibitory activity (time-resolved fluorometry, biotinylated peptide phosphorylation). The settings on record: read-out: YES_IC50. The essentials: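 Inhibition was expressed against a compound-free control to give IC50, using TR-FRET read-out (Eu-cryptate anti-pTyr antibody, streptavidin-XL665).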

The target in another test is T2, human Src enzyme (Homo sapiens, UniProt P12931).
T2 construct: purchased Carna Biosciences, Inc. 08-173
The experiment in a line: Src enzyme inhibitory activity (time-resolved fluorometry, biotinylated peptide phosphorylation). The settings on record: read-out: SRC_IC50. A digest of the protocol: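 Compounds were tested for blocking tyrosine phosphorylation of a biotinylated peptide substrate by recombinant human Src. Phosphorylated product was quantified by time-resolved fluorometry using europium cryptate and XL665 conjugates, and IC50 was calculated against the compound-free control.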

The next test concerns the target T3, human Lck enzyme (Homo sapiens, UniProt P06239).
T3 construct: purchased Carna Biosciences, Inc. 08-170
Description: Lck enzyme inhibitory activity (time-resolved fluorometry, biotinylated peptide phosphorylation). The following applies: read-out: LCK_IC50. A digest of the protocol:
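Readout pairs a europium cryptate-labelled anti-phosphotyrosine antibody with XL665-streptavidin, measured by time-resolved fluorescence. IC50 derived from percent inhibition against untreated controls.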

The mark [1] stands for this setting: biotinylated peptide phosphorylation.

SMILES strings stand for the structures. Where two headings read alike, the source gives them in different places.

T2 sequence (P12931 whole entry): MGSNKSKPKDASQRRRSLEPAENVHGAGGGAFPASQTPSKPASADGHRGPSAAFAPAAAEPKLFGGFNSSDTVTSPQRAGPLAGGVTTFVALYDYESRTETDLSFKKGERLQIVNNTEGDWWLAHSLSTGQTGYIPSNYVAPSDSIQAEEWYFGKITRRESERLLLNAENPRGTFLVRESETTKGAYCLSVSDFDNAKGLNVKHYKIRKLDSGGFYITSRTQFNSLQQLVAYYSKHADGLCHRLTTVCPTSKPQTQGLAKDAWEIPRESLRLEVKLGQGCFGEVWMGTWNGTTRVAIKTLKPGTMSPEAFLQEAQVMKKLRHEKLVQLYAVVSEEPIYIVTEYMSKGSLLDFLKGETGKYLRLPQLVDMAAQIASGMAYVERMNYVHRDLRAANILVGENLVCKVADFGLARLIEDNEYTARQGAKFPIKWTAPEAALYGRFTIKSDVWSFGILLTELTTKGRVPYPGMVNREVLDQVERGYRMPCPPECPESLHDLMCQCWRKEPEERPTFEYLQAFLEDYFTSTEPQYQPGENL
T3 sequence (P06239 whole entry): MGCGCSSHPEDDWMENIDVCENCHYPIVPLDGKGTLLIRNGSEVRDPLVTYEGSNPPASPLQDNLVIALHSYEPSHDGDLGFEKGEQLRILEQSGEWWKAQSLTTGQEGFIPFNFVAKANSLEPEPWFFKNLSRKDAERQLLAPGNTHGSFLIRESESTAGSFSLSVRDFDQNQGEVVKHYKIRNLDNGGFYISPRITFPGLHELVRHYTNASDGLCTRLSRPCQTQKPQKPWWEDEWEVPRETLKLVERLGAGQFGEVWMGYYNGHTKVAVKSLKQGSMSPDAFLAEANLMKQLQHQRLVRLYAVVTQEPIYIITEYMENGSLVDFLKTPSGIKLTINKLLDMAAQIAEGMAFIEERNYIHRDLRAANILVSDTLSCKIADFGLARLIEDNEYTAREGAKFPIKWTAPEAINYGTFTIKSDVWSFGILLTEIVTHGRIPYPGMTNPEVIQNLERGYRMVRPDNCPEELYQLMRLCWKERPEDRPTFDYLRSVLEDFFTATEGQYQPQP
T1 sequence (P07947 whole entry): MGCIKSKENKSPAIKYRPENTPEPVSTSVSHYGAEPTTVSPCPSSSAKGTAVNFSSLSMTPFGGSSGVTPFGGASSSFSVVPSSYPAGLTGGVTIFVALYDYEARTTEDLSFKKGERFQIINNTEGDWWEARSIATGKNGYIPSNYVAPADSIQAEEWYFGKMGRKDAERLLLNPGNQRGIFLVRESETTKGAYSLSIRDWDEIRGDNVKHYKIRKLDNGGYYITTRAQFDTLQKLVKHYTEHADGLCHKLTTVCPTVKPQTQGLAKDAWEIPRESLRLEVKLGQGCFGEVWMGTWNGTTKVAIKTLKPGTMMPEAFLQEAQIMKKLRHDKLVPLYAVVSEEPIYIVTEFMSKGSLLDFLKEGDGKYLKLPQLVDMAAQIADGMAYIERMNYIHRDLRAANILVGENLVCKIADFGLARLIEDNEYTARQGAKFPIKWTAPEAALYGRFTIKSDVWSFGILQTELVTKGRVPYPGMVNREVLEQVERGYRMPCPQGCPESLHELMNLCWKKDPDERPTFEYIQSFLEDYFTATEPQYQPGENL

For `Cc1cc(Oc2c(F)cccc2F)ncc1-n1ncc(C(=O)c2cc3cc(OCC(F)F)c(N4C(=O)NC5(CCN(C6COC6)C5)C4=O)cc3[nH]2)c1N` (stereo not drawn) [Example 5-1-352, 3-[2-[5-amino-1-[6-(2,6-difluorophenoxy)-4-methylpyridin-3-yl]pyrazole-4-carbonyl]-5-(2,2-difluoroethoxy)-1H-indol-6-yl]-7-(oxetan-3-yl)-1,3,7-triazaspiro[4.4]nonane-2,4-dione], the IC50 at human Yes1 enzyme was determined as 0.011 µM; on human Src enzyme, 0.16 µM; at human Lck enzyme it was 0.017 µM.

Take `Cc1cc(Oc2c(F)cccc2F)ncc1-n1ncc(C(=O)c2cc3cc(F)c(NS(=O)(=O)CCCF)cc3[nH]2)c1N` [Example 4-2-021, N-[2-[5-amino-1-[6-(2,6-difluorophenoxy)-4-methylpyridin-3-yl]pyrazole-4-carbonyl]-5-fluoro-1H-indol-6-yl]-3-fluoropropane-1-sulfonamide]: the IC50 at human Yes1 enzyme (setting [1]) was found to be 0.0015 µM; at human Src enzyme (setting [1]), 0.043 µM; on human Lck enzyme (setting [1]), 0.0086 µM.

Turning to `Cc1cc(Oc2ccccc2F)ncc1-n1ncc(C(=O)c2cc3cc(OCC(F)F)c(NS(=O)(=O)c4cccnc4)cc3[nH]2)c1N` [Example 5-1-425, N-[2-[5-amino-1-[6-(2-fluorophenoxy)-4-methylpyridin-3-yl]pyrazole-4-carbonyl]-5-(2,2-difluoroethoxy)-1H-indol-6-yl]pyridine-3-sulfonamide], the IC50 stood at 0.0015 µM at human Yes1 enzyme (setting [1]), 0.095 µM on human Src enzyme (setting [1]) and 0.039 µM at human Lck enzyme (setting [1]).

`Cc1cc(Oc2ccccc2F)ncc1-n1ncc(C(=O)c2cc3cc(OC(F)F)c(N4CCOC4=O)cc3[nH]2)c1N` [Example 4-25-018, 3-[2-[5-amino-1-[6-(2-fluorophenoxy)-4-methylpyridin-3-yl]pyrazole-4-carbonyl]-5-(difluoromethoxy)-1H-indol-6-yl]-1,3-oxazolidin-2-one]: the IC50 on human Yes1 enzyme (setting [1]) amounted to 0.00072 µM; on human Src enzyme (setting [1]), 0.02 µM; on human Lck enzyme (setting [1]), 0.0017 µM.

For the compound `Cc1cc2cc(C(=O)c3cnn(-c4cnc(Oc5c(F)cccc5F)cc4C)c3N)[nH]c2cc1N1C(=O)N[C@@H](C(C)C)C1=O` [Example 5-1-453, (5S)-3-[2-[5-amino-1-[6-(2,6-difluorophenoxy)-4-methylpyridin-3-yl]pyrazole-4-carbonyl]-5-methyl-1H-indol-6-yl]-5-propan-2-ylimidazolidine-2,4-dione], the IC50 stood at 0.0032 µM at human Yes1 enzyme (setting [1]), 0.13 µM on human Src enzyme (setting [1]) and 0.012 µM at human Lck enzyme (setting [1]).

Consider `COc1cc2cc(C(=O)c3cnn(-c4ccc(Oc5ccccc5F)cc4C)c3N)[nH]c2cc1NS(=O)(=O)CC(=O)NC(C)C` [Example 4-10-011, 2-[[2-[5-amino-1-[4-(2-fluorophenoxy)-2-methylphenyl]pyrazole-4-carbonyl]-5-methoxy-1H-indol-6-yl]sulfamoyl]-N-propan-2-ylacetamide], for which the IC50 was determined as 0.00064 µM on human Yes1 enzyme (setting [1]), 0.025 µM on human Src enzyme (setting [1]) and 0.0038 µM at human Lck enzyme (setting [1]).

On to `Cc1cc2cc(C(=O)c3cnn(-c4cnc(Oc5ccccc5F)cc4C)c3N)[nH]c2cc1N1C(=O)NC(C)(C)C1=O` [Example 5-1-334, 3-[2-[5-amino-1-[6-(2-fluorophenoxy)-4-methylpyridin-3-yl]pyrazole-4-carbonyl]-5-methyl-1H-indol-6-yl]-5,5-dimethylimidazolidine-2,4-dione], for which the IC50 was determined as 0.0013 µM on human Yes1 enzyme, 0.041 µM at human Src enzyme and 0.004 µM at human Lck enzyme.

Take `Cc1cc(Oc2ccccc2F)ccc1-n1ncc(C(=O)c2cc3cc(F)c(NS(=O)(=O)c4cc(F)cc(F)c4)cc3[nH]2)c1N` [Example 5-1-562, N-[2-[5-amino-1-[4-(2-fluorophenoxy)-2-methylphenyl]pyrazole-4-carbonyl]-5-fluoro-1H-indol-6-yl]-3,5-difluorobenzenesulfonamide]: the IC50 on human Yes1 enzyme (setting [1]) was found to be 0.0053 µM; at human Src enzyme (setting [1]), 0.83 µM; on human Lck enzyme (setting [1]) it was 0.18 µM.

As to `CC(=O)N1CCC(c2cc3[nH]c(C(=O)c4cnn(-c5cnc(Oc6c(F)cccc6F)cc5C)c4N)cc3cc2C)CC1` [Example 5-1-139, 1-[4-[2-[5-amino-1-[6-(2,6-difluorophenoxy)-4-methylpyridin-3-yl]pyrazole-4-carbonyl]-5-methyl-1H-indol-6-yl]piperidin-1-yl]ethanone], the IC50 at human Yes1 enzyme is 0.0018 µM; at human Src enzyme, 0.023 µM; on human Lck enzyme it was 0.025 µM.

In the case of `Cc1cc2cc(C(=O)c3cnn(-c4ccc(Oc5ccccc5F)cc4C)c3N)[nH]c2cc1N1C(=O)NC2(CCNCC2)C1=O` [Example 5-1-364, 3-(2-(5-amino-1-(4-(2-fluorophenoxy)-2-methylphenyl)-1H-pyrazole-4-carbonyl)-5-methyl-1H-indol-6-yl)-1,3,8-triazaspiro[4.5]decane-2,4-dione], the IC50 at human Yes1 enzyme was 0.0013 µM; at human Src enzyme it was 0.018 µM; at human Lck enzyme it was 0.0054 µM.

On to `Cc1cc(Oc2cccc(Cl)c2)nc(C)c1-n1ncc(C(=O)c2cc3cc(F)c(NS(C)(=O)=O)cc3[nH]2)c1N` [Example 5-1-052, N-[2-[5-amino-1-[6-(3-chlorophenoxy)-2,4-dimethylpyridin-3-yl]pyrazole-4-carbonyl]-5-fluoro-1H-indol-6-yl]methanesulfonamide], for which the IC50 on human Yes1 enzyme is 0.12 µM; at human Src enzyme, 0.81 µM; on human Lck enzyme, 0.25 µM.

Regarding `Cc1cc(-n2ncc(C(=O)c3cc4cc(OCC(F)F)c(N5CCN(S(C)(=O)=O)CC5)cc4[nH]3)c2N)ccc1Oc1ccccc1F` [Example 5-1-171, [5-amino-1-[4-(2-fluorophenoxy)-3-methylphenyl]pyrazol-4-yl]-[5-(2,2-difluoroethoxy)-6-(4-methylsulfonylpiperazin-1-yl)-1H-indol-2-yl]methanone], the IC50 at human Yes1 enzyme came to 0.0011 µM; at human Src enzyme, 0.079 µM; at human Lck enzyme, 0.049 µM.

Take `Cc1cc(Oc2c(F)cccc2F)ncc1-n1ncc(C(=O)c2cc3cc(OC(F)F)c(N4CCN(S(C)(=O)=O)CC4)cc3[nH]2)c1N` [Example 5-1-075, [5-amino-1-[6-(2,6-difluorophenoxy)-4-methylpyridin-3-yl]pyrazol-4-yl]-[5-(difluoromethoxy)-6-(4-methylsulfonylpiperazin-1-yl)-1H-indol-2-yl]methanone]: the results for the IC50 at human Yes1 enzyme, at human Src enzyme and at human Lck enzyme were 0.0028 µM, 0.073 µM and 0.018 µM, respectively.

`COc1cc(F)cc(S(=O)(=O)Nc2cc3[nH]c(C(=O)c4cnn(-c5cnc(Oc6ccccc6F)cc5C)c4N)cc3cc2C)c1` [Example 5-1-496, N-[2-[5-amino-1-[6-(2-fluorophenoxy)-4-methylpyridin-3-yl]pyrazole-4-carbonyl]-5-methyl-1H-indol-6-yl]-3-fluoro-5-methoxybenzenesulfonamide]: the IC50 is 0.011 µM on human Yes1 enzyme (setting [1]), 1.3 µM on human Src enzyme (setting [1]) and 0.63 µM on human Lck enzyme (setting [1]).

Turning to `Cc1cc(-n2ncc(C(=O)c3cc4cc(F)c(C5CCN(C(C)C)CC5)cc4[nH]3)c2N)ccc1Oc1ccccc1F` [Example 4-2-014, [5-amino-1-[4-(2-fluorophenoxy)-3-methylphenyl]pyrazol-4-yl]-[5-fluoro-6-(1-propan-2-ylpiperidin-4-yl)-1H-indol-2-yl]methanone], the IC50 on human Yes1 enzyme (setting [1]) was 0.018 µM; on human Src enzyme (setting [1]), 0.51 µM; on human Lck enzyme (setting [1]), 0.062 µM.
